The text below walks through data of US20200306295A1, “METHOD AND DEVICE FOR ANNIHILATION OF Staphylococcus aureus” (priority 2017, published 2020).

One assay concerns VRSA NR-46419 (VRSA 9). In words: MIC by standard broth-dilution method. The class given is cell-based, S. aureus. Particulars: Staphylococcus aureus, N = 3. An excerpt: (§1) For each measurement, three independent replicates were applied.
Assay [1] deals with stationary-phase MRSA. The format is cell-based, S. aureus. Particulars: checkerboard assay, MRSA growth inhibition. The method, then: To monitor the response of bacteria to laser treatment alone, antibiotic treatment alone, or their combinations, bacterial growth was continuously monitored overnight (18 hours with an interval of 30 min at 37° C.) by measuring optical density at 600 nm (OD600). Depending on the specific assay applied, the bacterial cells were suspended in 100 or 200 μl TSB medium under different treatment schemes (antibiotic alone, laser treatment alone, antibiotic plus laser treatment) with a final concentration of ˜10^5 CFU/ml. Bacterial growth was defined as OD600≥0.1.
Stationary-phase bacterial cells was washed and resuspended in 1×PBS at its original concentration. […] The treated droplet was collected and resuspended into 5 ml TSB (1:1000 dilution) for each group. Corresponding groups without laser treatment were also conducted for comparison. The bacterial suspensions were transferred to a 96-well plate with antibiotics supplemented into with the first row of the 96-well plate for eight two-fold serial dilution starting at a desired antibiotic concentration (e.g. ofloxacin: 2 μg/ml). After serial dilution, bacterial growth within the same well plate was monitored by a plate reader for 18 hours (OD600, 37° C.). The checkerboard assay was used for groups with laser treatment alone or laser plus antibiotic treatment. Two independent experiments of checkerboard assay were performed for each antibiotic with or without laser treatment. Based on the readout of OD600, a heat map was created to evaluate the antibiotic potentiation or synergistic effect enabled by STX photolysis.
Based on the checkerboard results, the fractional inhibitory concentration index (FICI), a synergy evaluation method between two antibiotics, was calculated as below: FICI=MIC of antibiotic A in combination/MIC of antibiotic A alone+MIC of antibiotic B in combination/MIC of antibiotic B alone. The interaction of the two antibiotics was defined as below: synergy if FICI≤0.5, no interaction if 0.5<FICI≤4, antagonism if FICI>4^46. […] Considering this reason, the synergy calculation was simplified as below: FICI=MIC of antibiotic A in combination with laser treatment/MIC of antibiotic A alone with synergy defined by FICI≤0.5.

Assay [2] has as its system S. aureus (ATCC 6538) biofilm. Particulars: antibiotic alone.
Assay [3] deals with MRSA USA400 inside murine macrophage cells (J774). In words: Intracellular MRSA infection model in J774 macrophage cells. The note with it: infected macrophage cells; vancomycin 2 μg/mL (4×MIC).
Assay [4] deals with MRSA NRS384 (MRSA USA 300). Put plainly: MIC by standard broth-dilution method. The format is cell-based, S. aureus. Particulars: Staphylococcus aureus; MRSA NRS384 (MRSA USA 300); N = 3; read-out: MIC.
Source text: as §1

For the next assay, the system named is MRSA USA300. In words: In vivo mice skin infection model (daptomycin, pulsed laser). More on the design: species or system BALB/c mice. The method, then:
The in vivo mice experiment was conducted following protocols approved by Boston University Animal Care and Use Committee (BUACUC). To initiate the formation of a skin wound, five groups (N=5) of eight-week-old female BALB/c mice (obtained from the Jackson Laboratory, ME, USA) were disinfected with ethanol (70%) and shaved on the middle of their back (approximately a one-inch by one-inch square region around the injection site) one day prior to infection as described from a reported procedure^45. To prepare the bacterial inoculum, an aliquot of overnight culture of MRSA USA300 was transferred to fresh TSB and shaken at 37° C. until an OD600 value of ˜1.0 was achieved. The cells were centrifuged, washed once with 1×PBS, re-centrifuged, and then re-suspended in 1×PBS. Mice subsequently received an intradermal injection (40 μl) containing ˜10^9 CFU/ml MRSA USA300. An open wound formed at the site of injection for each mouse, ˜48 hours post-infection. Topical treatment was initiated subsequently with each group of mice receiving the following: daptomycin (1%, using glycerol as the vehicle), pulsed laser (1 cm diameter illumination area, 10 min treatment time, 120 mW), or a combination of pulsed laser and daptomycin. One group of mice was left as the control. […] Data were analyzed via an unpaired t-test, utilizing Origin 2019b (OriginLab Corporation).

The test system of assay [5] is stationary-phase MRSA. Put plainly: Time-killing assay in PBS with or without pulsed laser (CFU enumeration). The class given is cell-based, S. aureus. Particulars: after 6 hours in PBS. The procedure: (§2) To quantify viable bacterial cells, CFU experiments were performed. 100 μl of sample analyte was transferred into a 96-well plate and then three or four ten-fold serial dilution achieved by transferring 20 μl bacterial culture into 180 μl 1×PBS in the next dilution row. After serial dilution, an aliquot (4 μl) from each well was spotted onto sterile TSA plates. After incubating the plates overnight (˜18 hours) at 37° C., the colonies were enumerated, and cell number was calculated in CFU/ml. For each CFU enumeration experiment, three independent replicates were applied.
(§3) Stationary-phase MRSA was prepared, washed and resuspended in 1×PBS at two-times of its original concentration. […] After laser treatment, the droplets were resuspended into 200 μl of 1×PBS (1:40 dilution) supplemented with antibiotics at different concentrations in a mini centrifuge tube (89166-278, VWR international). For example, daptomycin was added into MRSA solution after laser treatment at desired concentration of 0×MIC, 5×MIC, 10×MIC, 30×MIC, or 100×MIC supplemented with 50 μg/ml CaCl2). Corresponding groups without laser treatment were also conducted for comparison. These tubes were incubated within an orbital incubator (37° C., 200 rpm) for different incubation time. At each specific time point, 40 μl of aliquot from each group was transferred to a 96-well plate for follow-up CFU enumerating assay. In the case of tobramycin, additional antibiotic washing by 1×PBS was performed before the CFU experiment to avoid antibiotic interference. For time-killing assay in fresh human whole blood, similar protocol was followed as above, except that 1×PBS was replaced by fresh human whole blood and the initial stationary-phase MRSA solution was diluted by ten times with a concentration of ˜10^7 CFU/ml.

Assay [6] has as its system VRSA and multidrug-resistant MRSA clinical isolates. In words: Time-killing assay on resistant clinical isolates. The class given is cell-based, S. aureus. Particulars: 10 MIC daptomycin and laser treatment. The procedure: as §2
as §3, with “In the case of tobramycin, additional antibiotic washing by 1×PBS was performed before the CFU experiment to avoid antibiotic interference. For time-killing assay in fresh human whole blood, similar protocol was followed as above, except that 1×PBS was replaced by fresh human whole blood and the initial stationary-phase MRSA solution was diluted by ten times with a concentration of ˜10^7 CFU/ml.” left out

The test system of assay [7] is stationary-phase MRSA. In words: Daptomycin-BODIPY membrane insertion assay. The format is cell-based, S. aureus. The note with it: daptomycin labeled with BODIPY. The method, then: To study how the membrane fluidity change affects the insertion of membrane-targeting antibiotics, we applied daptomycin-BODIPY membrane insertion assay detailed as below. Firstly, we conjugated daptomycin with a fluorescent dye, BODIPY STP ester (B10006, Thermo Fisher Scientific). Briefly, 10 mg of daptomycin (103060-53-3, Acros Organics) was dissolved into 1 ml of 0.1 M sodium bicarbonate solution. Then 100 μl of BODIPY STP ester (B10006, Thermo Fisher Scientific, stock: 1 mg/ml in DMSO) was added to the daptomycin solution drop by drop. Then the mixed solution reacted under stirring at room temperature for 1 hour. Afterwards, the solution was under overnight dialysis against extensive 0.1 M sodium bicarbonate solution. After dialysis, the mixed solution was lyophilized. […] After treatment, bacterial droplets were collected into 985 μl of sterile pre-warned TSB medium containing 150 μg/ml of CaCl2. 10 μl of daptomycin-BODIPY (stock: 3 mg/ml in 1×PBS) was added to the above solution, and incubated for 30 min at 37° C. […] Confocal laser scanning microscope (FV3000, Olympus) was conducted to quantify daptomycin-BODIPY distribution and its signal intensity at an excitation wavelength of 488 nm. Quantitative analysis of the signal from individual MRSA cells was performed among groups with different laser treatment time.

The structures appear in SMILES notation. In brackets after ≈: the same amount, converted by molar mass.

The term MIC denotes the smallest concentration in the dilution series that meets the test's criterion for growth inhibition. In the assay on VRSA NR-46419 (VRSA 9), `CN[C@H](CC(C)C)C(=O)N[C@H]1C(=O)N[C@@H](CC(N)=O)C(=O)N[C@H]2C(=O)N[C@H]3C(=O)N[C@H](C(=O)N[C@H](C(=O)O)c4cc(O)cc(O)c4-c4cc3ccc4O)[C@H](O)c3ccc(c(Cl)c3)Oc3cc2cc(c3O[C@@H]2O[C@H](CO)[C@@H](O)[C@H](O)[C@H]2O[C@H]2C[C@](C)(N)[C@H](O)[C@H](C)O2)Oc2ccc(cc2Cl)[C@H]1O` [Vancomycin, vancomycin] showed an MIC of 256 µg/mL (≈ 177 µM). Further, the “synergism between laser treatment and antibiotic” value in the assay with stationary-phase MRSA [1] is listed as “no synergism”. Also, the “MRSA killed inside biofilm” value in assay [2] is reported as 70%. The “killing of intracellular MRSA 400 (CFU)” value in assay [3] was “no effect”.

`CCCCCCCCCC(=O)N[C@@H](Cc1c[nH]c2ccccc12)C(=O)N[C@H](CC(N)=O)C(=O)N[C@@H](CC(=O)O)C(=O)N[C@@H]1C(=O)NCC(=O)N[C@@H](CCCN)C(=O)N[C@@H](CC(=O)O)C(=O)N[C@H](C)C(=O)N[C@@H](CC(=O)O)C(=O)NCC(=O)N[C@H](CO)C(=O)N[C@@H]([C@H](C)CC(=O)O)C(=O)N[C@@H](CC(=O)c2ccccc2N)C(=O)O[C@@H]1C` [Daptomycin, daptomycin]: the MIC in assay [4] turned out to be 8 µg/mL (≈ 4.94 µM). In addition, the “cell killing in infected skin (CFU)” value is 81% with MRSA USA300 (10 mg/ml daptomycin alone, topical) and “around 95%” in the assay with MRSA USA300 (10 mg/ml daptomycin plus 10 min laser). In addition, the “reduction of stationary-phase MRSA” value with stationary-phase MRSA [5] (10 MIC with 5 min laser treatment) is reported as “more than 3.5 log”; with stationary-phase MRSA [5] (antibiotic alone at 100 MIC), 1 log. For the same compound, the “eradication by synergistic therapy” value in assay [6] was “effective in eradicating”. For the same compound, in the assay with stationary-phase MRSA [7], the “cellular uptake / membrane insertion with laser treatment vs untreated” value is given as “significantly more daptomycin uptake”.
